Tests used:
[1] = tested on: pentagastrin-stimulated acid secretion of the perfused rat stomach; test: Secretion-inhibiting action on the perfused rat stomach; format: in vivo; conditions: anesthetized CD rat
Excerpt: In Table A which follows, the influence of the compounds of the formula 1 according to the invention on the pentagastrin-stimulated acid secretion of the perfused rat stomach after intraduodenal/intravenous administration in vivo is shown.
The abdomen of anesthetized rats (CD rat, female, 200-250 g; 1.5 g/kg i.m. urethane) was opened after tracheotomy by a median upper abdominal incision and a PVC catheter was fixed transorally in the esophagus and another via the pylorus such that the ends of the tubes just projected into the gastric lumen. The catheter leading from the pylorus led outward into the right abdominal wall through a side opening.
After thorough rinsing (about 50-100 ml), warm (37° C.) physiological NaCl solution was continuously passed through the stomach (0.5 ml/min, pH 6.8-6.9; Braun-Unita I). The pH (pH meter 632, glass electrode EA 147; φ=5 mm, Metrohm) and, by titration with a freshly prepared 0.01N NaOH solution to pH 7 (Dosimat 665 Metrohm), the secreted HCl were determined in the effluent in each case collected at an interval of 15 minutes.
The gastric secretion was stimulated by continuous infusion of 1 μg/kg (=1.65 ml/h) of i.v. pentagastrin (left femoral vein) about 30 min after the end of the operation (i.e. after determination of 2 preliminary fractions). The substances to be tested were administered intraduodenally (substance 7 intravenously) in a 2.5 ml/kg liquid volume 60 min after the start of the continuous pentagastrin infusion.
The body temperature of the animals was kept at a constant 37.8-38° C. by infrared irradiation and heat pads (automatic, stepless control by means of a rectal temperature sensor).

SMILES | melting point [°C] | Inhibition of acid secretion (%) ([1]; dose 1 μmol/kg i.d.) | other results
CCc1cccc(C)c1CNc1cc(Cl)nc2cc(C)[nH]c12 [Example 1, (5-Chloro-2-methyl-1H-pyrrolo[3,2-b]pyridin-7-yl)-(2-ethyl-6-methyl-benzyl)-amine] | 296 |  | 
CCOC(=O)c1cc(NCc2c(C)cccc2CC)c2[nH]c(C)cc2n1 [Example 2, Ethyl[7-(2-ethyl-6-methyl-benzylamino)-2-methyl-1H-pyrrolo[3,2-b]pyridine-5-carboxylate]] | 274 to 275 |  | 
CCc1cccc(C)c1CNc1cc(C(=O)N(C)C)nc2c(Br)c(C)[nH]c12 [Example 5, 3-Bromo-7-(2-ethyl-6-methyl-benzylamino)-2-methyl-1H-pyrrolo[3,2-b]pyridine-5-carboxylic acid dimethylamide] |  | >30 | 
CCc1cccc(C)c1CNc1cc(C(=O)N(C)C)nc2c(CO)c(C)[nH]c12 [Example 6, 7-(2-Ethyl-6-methyl-benzylamino)-3-hydroxymethyl-2-methyl-1H-pyrrolo[3,2-b]pyridine-5-carboxylic acid dimethylamide] |  | >30 | 
CCc1cccc(C)c1CNc1cc(C(=O)N(C)C)nc2c(C)c(C)[nH]c12 [Example 7, 7-(2-Ethyl-6-methyl-benzylamino)-2,3-dimethyl-1H-pyrrolo[3,2-b]pyridine-5-carboxylic acid dimethylamide] |  |  | Inhibition of acid secretion (%) ([1]; dose 2 μmol/kg i.v.): >80%
CCOC(=O)c1cc(NCc2c(C)cccc2C)c2[nH]c(C)cc2n1 [Example 9, Ethyl[7-(2,6-dimethyl-benzylamino)-2-methyl-1H-pyrrolo[3,2-b]pyridine-5-carboxylate]] | 254 |  | 
Cc1cccc(C)c1CNc1cc(C(=O)N(C)C)nc2c(Br)c(C)[nH]c12 [Example 12, 3-Bromo-7-(2,6-dimethyl-benzylamino)-2-methyl-1H-pyrrolo[3,2-b]pyridine-5-carboxylic acid dimethylamide] |  |  | Inhibition of acid secretion (%) ([1]; dose 3 μmol/kg i.d.): >60%
Cc1cccc(C)c1CNc1cc(C(=O)N(C)C)nc2c(C)c(C)[nH]c12 [Example 14, 7-(2,6-Dimethyl-benzylamino)-2,3-dimethyl-1H-pyrrolo[3,2-b]pyridine-5-carboxylic acid dimethylamide] |  | >50 | 
CCOC(=O)c1cc(NCc2c(C)cccc2C)c2[nH]c(C)c(CO)c2n1 [Example 19, Ethyl[7-(2,6-dimethyl-benzylamino)-3-hydroxymethyl-2-methyl-1H-pyrrolo[3,2-b]pyridine-5-carboxylate]] | 256 to 259 |  | 
